Experimental data taken from PMC10854695, “Using Flavonoid Substitution Status to Predict Anticancer Effects in Human Melanoma Cancers: An In Vitro Study” (Cancers, 2024).

How the values were obtained:
C32 melanoma cells [1] = test: MTT cell viability assay, C32; settings: Homo sapiens, read-out: IC50, cytotoxic activity, MTT test;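 note: MTT added for 2 h, cells lysed in DMSO, absorbance read at 570 nm, compound vehicle kept at or below 0.1% DMSO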
Experimental: (§1) The MTT colorimetric assay was performed as a preliminary evaluation of the cytotoxicity of the selected flavonoids according to the method described and validated by Strawa et al. [21]. Briefly, melanoma cells and fibroblasts were seeded in 96-well microplates at a density of 1 × 10^4 cells per well. Fibroblasts were used as a control cell line in order to assess the selectivity of the compounds. […] Subsequently, the cells were washed with PBS, incubated with MTT solution for 2 h, and lysed with dimethyl sulfoxide (DMSO) supplemented with 1% (v/v) Sorensen’s glycine buffer. The absorbance was measured using a microplate reader (EPOCH 2, BioTek, Winooski, VT, USA) at a wavelength of 570 nm. The compounds were used at a final DMSO concentration of no more than 0.1% (v/v) in each well. The results were generated from at least three independent experiments. […] The IC50 values were calculated with GraphPad Prism 9 software (GraphPad Software, San Diego, CA, USA).

A375 melanoma cells [2] = test: MTT cell viability assay, A375; settings: Homo sapiens;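 note: Read-out is formazan absorbance at 570 nm after 2 h with MTT, with compounds in at most 0.1% v/v DMSO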
Experimental: as §1

C32 melanoma cells [3] = test: Neutral red uptake (NRU) assay, C32; settings: Homo sapiens
Experimental: (§2) The NRU (neutral red uptake) was conducted as previously described by Szoka and co-workers, with some modifications [22]. Briefly, melanoma cells and fibroblasts were seeded in microplates at the density of 1 × 10^4 cells per well and allowed to adhere for 24 h. […] After treatment, the culture medium was replaced with a neutral red solution (40 µg/mL). An additional 2 h of incubation was performed. The neutral red solution was then removed and the neutral red accumulated in the cells was dissolved in 50% EtOH with 1% of the glacial acetic acid. The absorbance was estimated at 540 nm and IC50 values were calculated using GraphPad Prism software (GraphPad Software, San Diego, CA, USA).

A375 melanoma cells [4] = test: Neutral red uptake (NRU) assay, A375; settings: Homo sapiens, read-out: IC50, cytotoxic activity, NRU assay
Experimental: as §2

[5] = MTT cell viability assay, normal cells; settings: human;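 note: fibroblasts served as non-cancer comparison line for selectivity versus melanoma cells, MTT reduction read as absorbance at 570 nm after 2 h dye exposure, compounds in ≤0.1% DMSO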
[6] = Neutral red uptake (NRU) assay, normal cells; settings: human
[7] = A-375, 24 h, read-out: IC50, cytotoxic activity, MTT test, A375, 24 h
[8] = A-375, 48 h, read-out: IC50, cytotoxic activity, MTT test, A375, 48 h
[9] = A-375, 72 h, read-out: IC50, cytotoxic activity, MTT test, A375, 72 h
[10] = C32, 24 h, read-out: IC50, cytotoxic activity, NRU assay, C32, 24 h
[11] = C32, 48 h, read-out: IC50, cytotoxic activity, NRU assay, C32, 48 h
[12] = C32, 72 h, read-out: IC50, cytotoxic activity, NRU assay, C32, 72 h
[13] = human skin fibroblasts (CCD25Sk)

Structure (SMILES)	IC50 (C32 melanoma cells [1]; C32, 24 h) [µM]	IC50 (C32 melanoma cells [1]; C32, 48 h) [µM]	IC50 (C32 melanoma cells [1]; C32, 72 h) [µM]	IC50 (A375 melanoma cells [2]; [7]) [µM]	IC50 (A375 melanoma cells [2]; [8]) [µM]	IC50 (A375 melanoma cells [2]; [9]) [µM]	IC50 (C32 melanoma cells [3]; [10]) [µM]	IC50 (C32 melanoma cells [3]; [11]) [µM]	IC50 (C32 melanoma cells [3]; [12]) [µM]	IC50 (A375 melanoma cells [4]; A-375, 24 h) [µM]	IC50 (A375 melanoma cells [4]; A-375, 48 h) [µM]	IC50 (A375 melanoma cells [4]; A-375, 72 h) [µM]	IC50 at 24 h [5, 13] [µM]	IC50 at 48 h [5, 13] [µM]	IC50 at 72 h [5, 13] [µM]	IC50 at 24 h [6, 13] [µM]	IC50 at 48 h [6, 13] [µM]	IC50 at 72 h [6, 13] [µM]	also measured
CC1OC(OCC2OC(Oc3cc(O)c4c(=O)cc(-c5ccc(O)cc5)oc4c3)C(O)C(O)C2O)C(O)C(O)C1O (stereo not drawn) [Compound 5, apigenin 7-O-rutinoside]	> 200	> 200	> 200	> 200	> 200	> 200	> 200	> 200	> 200	> 200	> 200	> 200	> 200	> 200	> 200	> 200	> 200	> 200	–
O=C(O)C1OC(Oc2c(-c3ccc(O)c(O)c3)oc3cc(O)cc(O)c3c2=O)C(O)C(O)C1O (stereo not drawn) [Compound 27, quercetin 3-O-glucuronide]	> 200	> 200	> 200	> 200	> 200	> 200	> 200	> 200	100 to 200	> 200	> 200	> 200	> 200	> 200	> 200	> 200	> 200	> 200	–
O=c1c(O)c(-c2ccc(O)c(O)c2)oc2cc(O)cc(O)c12 [Compound 24, quercetin]	> 200	> 200	68.1 ± 4.6	> 200	> 200	74.4 ± 5	> 200	58 ± 3.5	47.5 ± 4.3	100 to 200	84.7 ± 6.5	79.2 ± 7.3	> 200	> 200	36.1 ± 2	> 200	92.6 ± 4.2	36.4 ± 0.23	–
O=c1c(O[C@@H]2O[C@H](CO)[C@@H](O)[C@H](O)[C@H]2O)c(-c2ccc(O)cc2)oc2cc(O)cc(O)c12 [Compound 20, kaempferol 3-O-glucoside]	> 200	> 200	> 200	94.2 ± 6.9	46.9 ± 3.5	21.5 ± 2.2	> 200	> 200	> 200	> 200	> 200	> 200	> 200	> 200	> 200	> 200	> 200	> 200	–
O=c1cc(-c2ccc(O)cc2)oc2c([C@@H]3O[C@H](CO)[C@@H](O)[C@H](O)[C@H]3O)c(O)cc(O)c12 [Compound 2, apigenin 8-C-glucoside]	> 200	> 200	> 200	> 200	> 200	> 200	> 200	> 200	> 200	> 200	> 200	> 200	> 200	> 200	> 200	> 200	> 200	> 200	–
COc1ccc(C2CC(=O)c3c(O)cc(OC4OC(CO)C(O)C(O)C4OC4OC(C)C(O)C(O)C4O)cc3O2)cc1O (stereo not drawn) [Compound 35, hesperetin 7-O-neohesperidoside]	> 200	> 200	> 200	> 200	> 200	> 200	> 200	> 200	> 200	> 200	> 200	> 200	> 200	> 200	> 200	> 200	> 200	> 200	–
CC1OC(OCC2OC(Oc3c(-c4ccc(O)c(O)c4)oc4cc(OC5OC(CO)C(O)C(O)C5O)cc(O)c4c3=O)C(O)C(O)C2O)C(O)C(O)C1O (stereo not drawn) [Compound 29, quercetin 3-O-rutinoside-7-O-glucoside]	> 200	> 200	> 200	> 200	> 200	> 200	> 200	> 200	> 200	> 200	> 200	> 200	> 200	> 200	> 200	> 200	> 200	> 200	–
COc1c(O)cc(O)c2c(=O)c(O)c(-c3ccc(O)cc3)oc12 [Compound 19, 8-methoxykaempferol]	100 to 200	100 to 200	100 to 200	100 to 200	100 to 200	61.8 ± 3.1	100 to 200	88.8 ± 7	71.9 ± 7	100 to 200	100 to 200	100 to 200	> 200	> 200	100 to 200	> 200	> 200	64.8 ± 5	–
COc1cc(O)c2c(=O)c(O)c(-c3ccc(O)c(O)c3)oc2c1 [Compound 25, 7-methoxyquercetin]	> 200	100 to 200	37.7 ± 2.5	100 to 200	42.1 ± 3	25.1 ± 2.3	> 200	55.4 ± 4.3	28.4 ± 2.5	> 200	63.4 ± 4.8	43.7 ± 3.5	100 to 200	45.3 ± 2.3	35.7 ± 2.9	> 200	66.3 ± 5.6	38.4 ± 3.4	–
COc1cc(-c2oc3cc(O)cc(O)c3c(=O)c2O)ccc1O [Compound 26, 3′-methoxyquercetin]	> 200	100 to 200	49.3 ± 3.6	–	–	–	–	–	–	> 200	100 to 200	78.1 ± 6.5	–	–	–	–	–	–	IC50 (A375 melanoma cells [2]; A-375, 24 h, read-out: IC50, cytotoxic activity, MTT test): 86.3 ± 5.9 µM; IC50 (A375 melanoma cells [2]; A-375, 48 h, read-out: IC50, cytotoxic activity, MTT test): 68.5 ± 3.9 µM; IC50 (A375 melanoma cells [2]; A-375, 72 h, read-out: IC50, cytotoxic activity, MTT test): 50.8 ± 4 µM; IC50 (C32 melanoma cells [3]; C32, 24 h, read-out: IC50, cytotoxic activity, NRU assay): > 200 µM; IC50 (C32 melanoma cells [3]; C32, 48 h, read-out: IC50, cytotoxic activity, NRU assay): 100 to 200 µM; IC50 (C32 melanoma cells [3]; C32, 72 h, read-out: IC50, cytotoxic activity, NRU assay): 65.1 ± 4 µM; IC50 at 24 h [5]: 100 to 200 µM; IC50 at 48 h [5]: 68.5 ± 5.4 µM; IC50 at 72 h [5]: 46.2 ± 3.3 µM; IC50 at 24 h [6]: > 200 µM; IC50 at 48 h [6]: 78.7 ± 5.5 µM; IC50 at 72 h [6]: 69.2 ± 4.6 µM
